How the values were obtained:
[1] = test system: Bacillus (Bacillus licheniformis, Bacillus thuringiensis/cereus) present in sporulated form; test: Milk powder samples not contaminated with Staphylococcus aureus incubated in culture medium with or without D-alanine; fluorescence reading and MPN count of nonspecific growth; assay type: cell-based
Experimental: The example described hereinafter illustrates the inhibiting effect of D-alanine on the […] of microorganisms of Bacillus type (such as Bacillus licheniformis, Bacillus thuringiensis/cereus).
To do this, 59 samples of milk powder products liable to contain Bacillus microorganisms, also not contaminated with Staphylococcus aureus, were tested.
In order to study the inhibiting effect of D-alanine, two culture media were tested:
Medium 1: culture medium without D-alanine,
Medium 2: culture medium in the presence of D-alanine at a final concentration in the medium of between 0.05 and 0.1 mol/l (final concentration in the medium).
The composition of said culture medium is the following (in g/l, final concentration in the medium with or without D-alanine):
The samples were prepared according to ISO standard 8261: 2001 (concerning milk and milk products and relating to the “general guidelines for the preparation of test samples, of the stock suspension and of the decimal dilutions for the purpose of microbiological examination”) according to the following steps: • a) 10 grams of the sample are weighed out and placed in a Stomacher® bag, • b) 90 ml of tryptone salt diluent preheated to 45° C. are added so as to obtain an initial 1/10 dilution of the sample, • c) grinding is carried out using a Stomacher® machine for one minute, • d) the Stomacher® bag is placed in a water bath and stirred for 5 minutes at 45° C., • e) 1 ml of the sample (diluted to 1/10) is taken and placed in 3 ml of culture medium so as to obtain a 1/40 dilution, • f) incubation is carried out for a period of between 24 and 27 hours at a temperature of 37° C., • g) the culture medium is read by fluorescence and the level of contamination of the sample with microorganisms is determined by means of the most probable number technique.
The reading consists of a measurement of the fluorescence of the culture medium obtained after incubation. A large variation in the fluorescence values attests to acidification of the medium, said acidification itself resulting from the growth of one or more microorganisms.
The CV fluorescence values were calculated on the basis of the samples tested (not contaminated with Staphylococcus aureus).
The higher the CV, the greater the acidification of the medium, thereby attesting to growth of the microorganisms present in the culture medium. Conversely, the lower the CV, the less the acidification, thereby reflecting less growth of the microorganisms. The specificity of the medium is therefore better and the risk of false positives is therefore less (false-positive result linked to the acidification of the medium by a bacterium of a microorganism other than Staphylococcus aureus). […]

[2] = test system: Bacillus licheniformis spores; conditions: L-alanine dehydrogenase dependent first step; cited from earlier work

C[C@@H](N)C(=O)O [D-alanine]
% of samples with MPN count <10 (good specificity) ([1]; 59 milk powder samples, D-alanine 0.05-0.1 mol/l, 24-27 hours at 37° C.): 89.83% | rate of false-positive results ([1]; 59 milk powder samples, false positives related to growth of Bacillus): 10.17% | highest false-positive count result ([1]; 59 milk powder samples, with the use of D-alanine): ≤ 50 CFU/gram | effect on CV values obtained after incubation of the medium ([1]; D-alanine in the culture medium vs. medium without): greatly reduce the CV values | inhibition of the first step of spore germination [2]: inhibited

CCOC(=O)C(C)=O [ethyl pyruvate]
inhibition of the first step of spore germination [2]: inhibited

CCCCCCCCO [octanol]
inhibition of the first step of spore germination [2]: inhibited

From US10612068B2, “Culture medium containing a spore germination inhibiting or delaying compound” (BIOMERIEUX, priority 2008, dated 2020)
